Test results as given in ChEMBL document CHEMBL1201862, “PubChem BioAssay data set” (2004).
Values joined by “and” are separate entries in the source; they are usually repeats but may differ in a detail not shown here. Identical values can stand only once.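 Exposure lasted 48 hours, with cells grown in 96-well plates and compounds tested at five concentrations. GI50 marks 50% less growth.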 Active and inactive are the calls of the source. No stated cut-off is given here; in the data, active = GI50 up to about 1.1 µM and inactive = higher.

Key:
Assay in all cases: inhibition of tumour cell growth, NCI panel, 48 h
786-0 = tested on: 786-0
A498 = tested on: A498
A549 = tested on: A549
ACHN = tested on: ACHN
CAKI-1 = tested on: CAKI-1
CCRF-CEM = tested on: CCRF-CEM
COLO 205 = tested on: COLO 205
DU-145 = tested on: DU-145
HCC 2998 = tested on: HCC 2998
HCT-116 = tested on: HCT-116
HL-60 = tested on: HL-60
HOP-62 = tested on: HOP-62
HOP-92 = tested on: HOP-92
HT-29 = tested on: HT-29
Hs-578T = tested on: Hs-578T
K562 = tested on: K562
KM12 = tested on: KM12
LOX IMVI = tested on: LOX IMVI
M14 = tested on: M14
MCF7 = tested on: MCF7
MDA-MB-231 = tested on: MDA-MB-231
MDA-MB-435 = tested on: MDA-MB-435
MDA-N = tested on: MDA-N
MOLT-4 = tested on: MOLT-4
NCI-H226 = tested on: NCI-H226
NCI-H23 = tested on: NCI-H23
NCI-H460 = tested on: NCI-H460
NCI/ADR-RES = tested on: NCI/ADR-RES
OVCAR-3 = tested on: OVCAR-3
OVCAR-4 = tested on: OVCAR-4
OVCAR-5 = tested on: OVCAR-5
OVCAR-8 = tested on: OVCAR-8
PC-3 = tested on: PC-3
RPMI-8226 = tested on: RPMI-8226
RXF 393 = tested on: RXF 393
SF-268 = tested on: SF-268
SF-295 = tested on: SF-295
SF-539 = tested on: SF-539
SK-MEL-28 = tested on: SK-MEL-28
SK-MEL-2 = tested on: SK-MEL-2
SK-MEL-5 = tested on: SK-MEL-5
SK-OV-3 = tested on: SK-OV-3
SN12C = tested on: SN12C
SNB-19 = tested on: SNB-19
SNB-75 = tested on: SNB-75
SR = tested on: SR
SW-620 = tested on: SW-620
T47D = tested on: T47D
TK-10 = tested on: TK-10
U-251 = tested on: U-251
UACC-257 = tested on: UACC-257
UACC-62 = tested on: UACC-62
UO-31 = tested on: UO-31
BT-549 = tested on: BT-549
Malme-3M = tested on: Malme-3M
EKVX = tested on: EKVX
HCT-15 = tested on: HCT-15
IGROV-1 = tested on: IGROV-1
NCI-H522 = tested on: NCI-H522

## CCOC(=O)c1sc2[n+](c1C)C(=O)/C(=C/c1ccc([N+](=O)[O-])cc1)S2
786-0
  GI50: 22.2 µM (inactive)
A498
  GI50: > 100 µM (inactive)
A549
  GI50: 23.5 µM (inactive)
ACHN
  GI50: 30.6 µM (inactive)
CAKI-1
  GI50: 15.1 µM (inactive)
CCRF-CEM
  GI50: > 100 µM (inactive)
COLO 205
  GI50: 30.7 µM (inactive)
DU-145
  GI50: 31.3 µM (inactive)
HCC 2998
  GI50: 17.2 µM (inactive)
HCT-116
  GI50: 20.8 µM (inactive)
HL-60
  GI50: 75.7 µM (inactive)
HOP-62
  GI50: 20.7 µM (inactive)
HOP-92
  GI50: > 100 µM (inactive)
HT-29
  GI50: 16.8 µM (inactive)
Hs-578T
  GI50: 23.2 µM (inactive)
K562
  GI50: 20.9 µM (inactive)
KM12
  GI50: 18.4 µM (inactive)
LOX IMVI
  GI50: 25.2 µM (inactive)
M14
  GI50: 31.6 µM (inactive)
MCF7
  GI50: 21.2 µM (inactive)
MDA-MB-231
  GI50: 46.6 µM (inactive)
MDA-MB-435
  GI50: 18 µM (inactive)
MDA-N
  GI50: 27.7 µM (inactive)
MOLT-4
  GI50: 22.2 µM (inactive)
NCI-H226
  GI50: 28.3 µM (inactive)
NCI-H23
  GI50: 16.1 µM (inactive)
NCI-H460
  GI50: 19.7 µM (inactive)
NCI/ADR-RES
  GI50: 13.8 µM (inactive)
OVCAR-3
  GI50: 9.08 µM (inactive)
OVCAR-4
  GI50: 56.5 µM (inactive)
OVCAR-5
  GI50: 31.7 µM (inactive)
OVCAR-8
  GI50: 19.5 µM (inactive)
PC-3
  GI50: 18.9 µM (inactive)
RPMI-8226
  GI50: 10.4 µM (inactive)
RXF 393
  GI50: 29.8 µM (inactive)
SF-268
  GI50: 12.9 µM (inactive)
SF-295
  GI50: 18.5 µM (inactive)
SF-539
  GI50: 21.2 µM (inactive)
SK-MEL-28
  GI50: 27.4 µM (inactive)
SK-MEL-2
  GI50: 20.7 µM (inactive)
SK-MEL-5
  GI50: 38.8 µM (inactive)
SK-OV-3
  GI50: 23.8 µM (inactive)
SN12C
  GI50: 36.6 µM (inactive)
SNB-19
  GI50: 45.2 µM (inactive)
SNB-75
  GI50: 20.5 µM (inactive)
SR
  GI50: 24.3 µM (inactive)
SW-620
  GI50: 28.5 µM (inactive)
T47D
  GI50: 25.5 µM (inactive)
TK-10
  GI50: 20.6 µM (inactive)
U-251
  GI50: 17.3 µM (inactive)
UACC-257
  GI50: 28.1 µM (inactive)
UACC-62
  GI50: 17.9 µM (inactive)
UO-31
  GI50: 15 µM (inactive)

## CC(C)=CCC/C(C)=C\CCC1(C)OC(=O)C2CC21 (stereo not drawn)
A498
  GI50: 98.9 µM (inactive)
BT-549
  GI50: 31.8 µM (inactive) and 34 µM (inactive)
CAKI-1
  GI50: 23.8 µM (inactive) and 32.3 µM (inactive)
COLO 205
  GI50: 49.1 µM (inactive) and 59.8 µM (inactive)
DU-145
  GI50: 92.7 µM (inactive)
HCC 2998
  GI50: 21.1 µM (inactive) and 36.1 µM (inactive)
HL-60
  GI50: 18.5 µM (inactive) and 12.3 µM (inactive)
HOP-62
  GI50: > 100 µM (inactive) and 53.5 µM (inactive)
K562
  GI50: 22.4 µM (inactive) and 17.2 µM (inactive)
LOX IMVI
  GI50: 15 µM (inactive) and 27.7 µM (inactive)
MDA-MB-231
  GI50: 50.5 µM (inactive)
MOLT-4
  GI50: 18.1 µM (inactive) and 22.7 µM (inactive)
Malme-3M
  GI50: 80.2 µM (inactive)
NCI-H23
  GI50: 28.7 µM (inactive) and 40.4 µM (inactive)
NCI/ADR-RES
  GI50: 42.4 µM (inactive) and 33.3 µM (inactive)
OVCAR-3
  GI50: 51.5 µM (inactive) and 27.5 µM (inactive)
OVCAR-5
  GI50: > 100 µM (inactive)
PC-3
  GI50: 25.9 µM (inactive) and 35.4 µM (inactive)
RPMI-8226
  GI50: 28.3 µM (inactive) and 19.7 µM (inactive)
RXF 393
  GI50: 40.6 µM (inactive)
SF-268
  GI50: > 100 µM (inactive)
SK-MEL-2
  GI50: 45.6 µM (inactive)
SK-MEL-5
  GI50: 43.6 µM (inactive) and 41.1 µM (inactive)
SNB-19
  GI50: > 100 µM (inactive) and 71.1 µM (inactive)
SNB-75
  GI50: 55.7 µM (inactive)
T47D
  GI50: > 100 µM (inactive) and 63.4 µM (inactive)
TK-10
  GI50: 56.6 µM (inactive)
UACC-257
  GI50: 73.6 µM (inactive) and 47.3 µM (inactive)
UO-31
  GI50: 44.4 µM (inactive) and 37.2 µM (inactive)

## O=Cc1ccc2c(c1)CC1(Cc3ccccc3C1)C2
786-0
  GI50: 14.2 µM (inactive)
A498
  GI50: 30.3 µM (inactive)
A549
  GI50: > 100 µM (inactive)
ACHN
  GI50: 22.1 µM (inactive)
CCRF-CEM
  GI50: 7.78 µM (inactive)
COLO 205
  GI50: 21.8 µM (inactive)
EKVX
  GI50: 15.3 µM (inactive)
HCC 2998
  GI50: 59 µM (inactive)
HCT-116
  GI50: > 100 µM (inactive)
HCT-15
  GI50: 11.5 µM
HL-60
  GI50: 19.4 µM (inactive)
HOP-62
  GI50: 16.1 µM (inactive)
HOP-92
  GI50: 16.4 µM (inactive)
HT-29
  GI50: 23.4 µM (inactive)
Hs-578T
  GI50: 3.72 µM (inactive)
IGROV-1
  GI50: 20.5 µM (inactive)
K562
  GI50: 22.1 µM (inactive)
KM12
  GI50: 55.8 µM (inactive)
LOX IMVI
  GI50: 18.4 µM (inactive)
M14
  GI50: 13.1 µM (inactive)
MCF7
  GI50: 31 µM (inactive)
MDA-MB-231
  GI50: 13.5 µM (inactive)
MDA-MB-435
  GI50: 16.7 µM (inactive)
MDA-N
  GI50: 18.7 µM (inactive)
MOLT-4
  GI50: 18.4 µM (inactive)
Malme-3M
  GI50: 18.2 µM (inactive)
NCI-H226
  GI50: 22.5 µM (inactive)
NCI-H23
  GI50: 23.3 µM (inactive)
NCI-H522
  GI50: 48.4 µM (inactive)
NCI/ADR-RES
  GI50: 26.5 µM (inactive)
OVCAR-3
  GI50: 14.3 µM (inactive)
OVCAR-4
  GI50: 17.6 µM (inactive)
OVCAR-5
  GI50: > 100 µM (inactive)
OVCAR-8
  GI50: 19.3 µM (inactive)
PC-3
  GI50: 25.9 µM (inactive)
RPMI-8226
  GI50: 24.8 µM (inactive)
RXF 393
  GI50: > 100 µM (inactive)
SF-295
  GI50: 31.3 µM (inactive)
SF-539
  GI50: 17.3 µM (inactive)
SK-MEL-2
  GI50: 11.2 µM (inactive)
SK-MEL-5
  GI50: 16 µM (inactive)
SK-OV-3
  GI50: 38.1 µM (inactive)
SN12C
  GI50: 18.1 µM (inactive)
SR
  GI50: 2.82 µM (inactive)
T47D
  GI50: 25.9 µM (inactive)
TK-10
  GI50: 36.6 µM (inactive)
U-251
  GI50: 17.8 µM (inactive)
UACC-257
  GI50: 20.5 µM (inactive)
UACC-62
  GI50: 2.38 µM (inactive)
UO-31
  GI50: 31.3 µM (inactive)

## C[n+]1cccc2ccc(OC(=O)c3ccccc3)cc21
786-0
  GI50: > 100 µM (inactive)
A498
  GI50: > 100 µM (inactive)
A549
  GI50: > 100 µM (inactive)
ACHN
  GI50: > 100 µM (inactive)
CAKI-1
  GI50: > 100 µM (inactive)
CCRF-CEM
  GI50: > 10 µM (inactive)
COLO 205
  GI50: > 100 µM (inactive)
DU-145
  GI50: > 100 µM (inactive)
EKVX
  GI50: > 100 µM (inactive)
HCT-116
  GI50: > 100 µM (inactive)
HCT-15
  GI50: > 100 µM
HL-60
  GI50: > 10 µM (inactive)
HOP-62
  GI50: > 100 µM (inactive)
HOP-92
  GI50: > 100 µM (inactive)
HT-29
  GI50: > 100 µM (inactive)
Hs-578T
  GI50: > 100 µM (inactive)
IGROV-1
  GI50: > 100 µM (inactive)
K562
  GI50: > 100 µM (inactive)
KM12
  GI50: > 100 µM (inactive)
LOX IMVI
  GI50: > 100 µM (inactive)
M14
  GI50: > 100 µM (inactive)
MCF7
  GI50: > 100 µM (inactive)
MDA-MB-435
  GI50: > 100 µM (inactive)
MDA-N
  GI50: > 100 µM (inactive)
MOLT-4
  GI50: > 100 µM (inactive)
Malme-3M
  GI50: > 100 µM (inactive)
NCI-H226
  GI50: > 100 µM (inactive)
NCI-H23
  GI50: > 100 µM (inactive)
NCI-H522
  GI50: > 100 µM (inactive)
NCI/ADR-RES
  GI50: > 100 µM (inactive)
OVCAR-3
  GI50: > 100 µM (inactive)
OVCAR-4
  GI50: > 100 µM (inactive)
OVCAR-5
  GI50: > 100 µM (inactive)
OVCAR-8
  GI50: > 100 µM (inactive)
RPMI-8226
  GI50: > 100 µM (inactive)
RXF 393
  GI50: > 100 µM (inactive)
SF-268
  GI50: > 100 µM (inactive)
SF-295
  GI50: > 100 µM (inactive)
SF-539
  GI50: > 100 µM (inactive)
SK-MEL-2
  GI50: > 100 µM (inactive)
SK-MEL-5
  GI50: > 100 µM (inactive)
SK-OV-3
  GI50: > 100 µM (inactive)
SN12C
  GI50: > 100 µM (inactive)
SNB-19
  GI50: > 100 µM (inactive)
SNB-75
  GI50: > 100 µM (inactive)
SW-620
  GI50: > 100 µM (inactive)
T47D
  GI50: > 100 µM (inactive)
TK-10
  GI50: > 100 µM (inactive)
UACC-257
  GI50: > 100 µM (inactive)
UACC-62
  GI50: > 100 µM (inactive)
UO-31
  GI50: > 100 µM (inactive)
